Data as given in US20240109873A1, “ANTAGONISTS OF THE MUSCARINIC ACETYLCHOLINE RECEPTOR M4” (Vanderbilt University, priority 2020, published 2024).

Target: T1, human mAChR M4 (Homo sapiens, UniProt P08173)
T1 construct: expressed in transfected cells; host or cells: CHO-K1 (ATCC), co-transfected with chimeric G protein Gqi5
T1 sequence (P08173 1-479): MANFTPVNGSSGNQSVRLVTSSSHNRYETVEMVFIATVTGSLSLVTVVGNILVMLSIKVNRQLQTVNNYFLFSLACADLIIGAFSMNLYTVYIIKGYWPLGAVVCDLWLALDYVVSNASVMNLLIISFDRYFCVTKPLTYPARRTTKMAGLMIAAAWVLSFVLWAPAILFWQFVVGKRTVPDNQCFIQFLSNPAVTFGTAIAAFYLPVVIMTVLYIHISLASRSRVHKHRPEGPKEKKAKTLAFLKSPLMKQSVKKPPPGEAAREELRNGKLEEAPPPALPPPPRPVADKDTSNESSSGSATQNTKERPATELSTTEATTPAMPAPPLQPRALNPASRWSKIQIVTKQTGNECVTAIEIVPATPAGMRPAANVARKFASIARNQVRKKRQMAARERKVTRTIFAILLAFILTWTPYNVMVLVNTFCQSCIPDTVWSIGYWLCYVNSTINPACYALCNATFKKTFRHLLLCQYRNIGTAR
Experiment: mAChR M4 cell-based functional assay (calcium flux, antagonism of EC80 acetylcholine response, M4/Gqi5/CHO-K1 cells)
Conditions: for remaining activity at 30 µM: CHO-K1, % ACh maximum at 30 μM, read-out: Human M4 Emin; for IC50: decrease of the response elicited by an EC80 concentration of acetylcholine, CHO-K1 cells, Gqi5
Protocol: Human or rat M4 cDNA, along with the chimeric G protein Gqi5, were transfected into Chinese hamster ovary (CHO-K1) cells purchased from the American Type Culture Collection using Lipofectamine2000. M4/Gqi5/CHO cells were grown in Ham's F-12 medium containing 10% heat-inactivated fetal bovine serum (FBS), 20 mM HEPES, 500 μg/mL G418 sulfate, and 200 μg/mL Hygromycin B.
For high throughput measurement of agonist-evoked increases in intracellular calcium, CHO-K1 cells stably expressing muscarinic receptors were plated in growth medium lacking G418 and hygromycin at 15,000 cells/20 μL/well in Greiner 384-well black-walled, tissue culture (TC)-treated, clear-bottom plates (VWR). Cells were incubated overnight at 37° C. and 5% CO2. The next day, cells were washed using an ELX 405 (BioTek) with assay buffer; the final volume was then aspirated to 20 μL. Next, 20 μL of a 2.3 μM stock of Fluo-4/acetoxymethyl ester (Invitrogen, Carlsbad, CA), prepared as a 2.3 mM stock in DMSO and mixed in a 1:1 ratio with 10% (w/v) Pluronic F-127 and diluted in assay buffer, was added to the wells and the cell plates were incubated for 50 min at 37° C. and 5% CO2. Dye was removed by washing with the ELX 405 and the final volume was aspirated to 20 μL. Compound master plates were formatted in a 10-point concentration-response curve (CRC) format (1:3 dilutions) in 100% DMSO with a starting concentration of 10 or 1 mM using a BRAVO liquid handler (Agilent). Test compound CRCs were then transferred to daughter plates (240 nL) using the Echo acoustic plate reformatter (Labcyte, Sunnyvale, CA) and then diluted into assay buffer (40 μL) to a 2× stock using a Thermo Fisher Combi (Thermo Fisher Scientific, Waltham, MA).
Calcium flux was measured using the Functional Drug Screening System (FDSS) 6000 or 7000 (Hamamatsu Corporation, Tokyo, Japan) as an increase in the fluorescent static ratio. Compounds were applied to cells (20 μL, 2×) using the automated system of the FDSS at 2 seconds into the protocol and the data were collected at 1 Hz. At 143 s, 10 μL of an EC20 concentration of the muscarinic receptor agonist acetylcholine was added (5×), followed by the addition of 12 μL of an EC80 concentration of acetylcholine at the 268 s time point (5×). Agonist activity was analyzed as a concentration-dependent increase in calcium mobilization upon compound addition. Positive allosteric modulator activity was analyzed as a concentration-dependent increase in the EC20 acetylcholine response. Antagonist activity was analyzed as a concentration-dependent decrease in the EC80 acetylcholine response; for the purposes of the tables herein, an IC50 (inhibitory concentration 50) was calculated as a concentration-dependent decrease of the response elicited by an EC80 concentration of acetylcholine. Concentration-response curves were generated using a four-parameter logistical equation in XLFit curve fitting software (IDBS, Bridgewater, NJ) for Excel (Microsoft, Redmond, WA) or Prism (GraphPad Software, Inc., San Diego, CA) or the Dotmatics software platform (Dotmatics, Bishop's Stortford, UK). […]
Compounds were synthesized as described above. Activity (IC50 and Emin) was determined in the mAChR M4 cell-based functional assay as described above and the data are shown in Table 2.

| SMILES | remaining activity at 30 µM | IC50 | Human M4 Emin (% ACh maximum at 30 μM) |
| --- | --- | --- | --- |
| [2H]C1([2H])CC(C([2H])([2H])N2C[C@H]3C[C@H](Nc4nnc(-c5cnccc5C(F)(F)F)cc4OC)C[C@H]3C2)CC([2H])([2H])O1 [Compound 22, (3aR,5s,6aS)-N-(4-methoxy-6-(4-(trifluoromethyl)pyridin-3-yl)pyridazin-3-yl)-2-((tetrahydro-2H-pyran-4-yl-2,2,6,6-d4)methyl-d2)octahydrocyclopenta[c]pyrrol-5-amine] | 2% | 4.5 nM | – |
| [2H]C1([2H])CC(CN2C[C@H]3C[C@H](Nc4nnc(-c5cnccc5C(F)(F)F)cc4OC)C[C@H]3C2)CC([2H])([2H])O1 [Compound 23, (3aR,5s,6aS)-N-(4-methoxy-6-(4-(trifluoromethyl)pyridin-3-yl)pyridazin-3-yl)-2-((tetrahydro-2H-pyran-4-yl-2,2,6,6-d4)methyl)octahydrocyclopenta[c]pyrrol-5-amine] | 2% | 3.9 nM | – |
| [2H]C([2H])([C@@H]1CCCOC1)N1C[C@H]2C[C@H](Nc3ccc(-c4cnccc4C(F)(F)F)nn3)C[C@H]2C1 [Compound 24, (3aR,5s,6aS)-2-(((S)-tetrahydro-2H-pyran-3-yl)methyl-d2)-N-(6-(4-(trifluoromethyl)pyridin-3-yl)pyridazin-3-yl)octahydrocyclopenta[c]pyrrol-5-amine] | 3% | 5.5 nM | – |
| [2H]C([2H])([C@H]1CCCOC1)N1C[C@H]2C[C@H](Nc3ccc(-c4cnccc4C(F)(F)F)nn3)C[C@H]2C1 [Compound 25, (3aR,5s,6aS)-2-(((R)-tetrahydro-2H-pyran-3-yl)methyl-d2)-N-(6-(4-(trifluoromethyl)pyridin-3-yl)pyridazin-3-yl)octahydrocyclopenta[c]pyrrol-5-amine] | 6% | 35 nM | – |
| [2H]C([2H])(C1CCCOCC1)N1C[C@H]2C[C@H](Nc3ccc(-c4cnccc4C(F)(F)F)nn3)C[C@H]2C1 (stereo partly drawn) [Compound 28, (3aR,5s,6aS)-2-(oxepan-4-ylmethyl-d2)-N-(6-(4-(trifluoromethyl)pyridin-3-yl)pyridazin-3-yl)octahydrocyclopenta[c]pyrrol-5-amine] | 4% | 2.7 nM | – |
| [2H]C([2H])(C1CC(C)(C)OC(C)(C)C1)N1C[C@H]2C[C@H](Nc3ccc(-c4cnccc4C(F)(F)F)nn3)C[C@H]2C1 [Compound 32, (3aR,5s,6aS)-2-((2,2,6,6-tetramethyltetrahydro-2H-pyran-4-yl)methyl-d2)-N-(6-(4-(trifluoromethyl)pyridin-3-yl)pyridazin-3-yl)octahydrocyclopenta[c]pyrrol-5-amine] | 14% | 24 nM | – |
| [2H]C([2H])(C1CCOC(C)(C)C1)N1C[C@H]2C[C@H](Nc3ccc(-c4cnccc4C(F)(F)F)nn3)C[C@H]2C1 (stereo partly drawn) [Compound 33, (3aR,5s,6aS)-2-((2,2-dimethyltetrahydro-2H-pyran-4-yl)methyl-d2)-N-(6-(4-(trifluoromethyl)pyridin-3-yl)pyridazin-3-yl)octahydrocyclopenta[c]pyrrol-5-amine] | – | 4.2 nM | 7% |
| [2H]C([2H])(N1C[C@H]2C[C@H](Nc3ccc(-c4cnccc4C(F)(F)F)nn3)C[C@H]2C1)C(F)(F)C1CCOCC1 [Compound 36, (3aR,5s,6aS)-2-(2,2-difluoro-2-(tetrahydro-2H-pyran-4-yl)ethyl-1,1-d2)-N-(6-(4-(trifluoromethyl)pyridin-3-yl)pyridazin-3-yl)octahydrocyclopenta[c]pyrrol-5-amine] | 6% | 39 nM | – |
| [2H]C([2H])(N1C[C@H]2C[C@H](Nc3nnc(-c4cnccc4C(F)(F)F)cc3C)C[C@H]2C1)C(F)(F)C1CCOCC1 [Compound 37, (3aR,5s,6aS)-2-(2,2-difluoro-2-(tetrahydro-2H-pyran-4-yl)ethyl-1,1-d2)-N-(4-methyl-6-(4-(trifluoromethyl)pyridin-3-yl)pyridazin-3-yl)octahydrocyclopenta[c]pyrrol-5-amine] | 4% | 21 nM | – |

Now those with a lower IC50, led by results:

| remaining activity at 30 µM | IC50 | Human M4 Emin (% ACh maximum at 30 μM) | SMILES |
| --- | --- | --- | --- |
| 6% | 1.3 nM | – | [2H]C([2H])(C1CCOCC1)N1C[C@H]2C[C@H](Nc3nnc(-c4cnccc4C(F)(F)F)cc3C(F)F)C[C@H]2C1 [Compound 26, (3aR,5s,6aS)-N-(4-(difluoromethyl)-6-(4-(trifluoromethyl)pyridin-3-yl)pyridazin-3-yl)-2-((tetrahydro-2H-pyran-4-yl)methyl-d2)octahydrocyclopenta[c]pyrrol-5-amine] |
| 5% | 0.8 nM | – | [2H]C([2H])(CC1CCOCC1)N1C[C@H]2C[C@H](Nc3ccc(-c4cnccc4C(F)(F)F)nn3)C[C@H]2C1 [Compound 31, (3aR,5s,6aS)-2-(2-(tetrahydro-2H-pyran-4-yl)ethyl-1,1-d2)-N-(6-(4-(trifluoromethyl)pyridin-3-yl)pyridazin-3-yl)octahydrocyclopenta[c]pyrrol-5-amine] |
| 23% | 0.8 nM | – | [2H]C([2H])(C1CCOCC1)N1C[C@H]2C[C@H](Nc3ccc(-c4cccnc4C(F)(F)F)nn3)C[C@H]2C1 [Compound 39, (3aR,5s,6aS)-2-((tetrahydro-2H-pyran-4-yl)methyl-d2)-N-(6-(2-(trifluoromethyl)pyridin-3-yl)pyridazin-3-yl)octahydrocyclopenta[c]pyrrol-5-amine] |
| 3% | 0.74 nM | – | FC(F)(F)c1ncccc1-c1ccc(N[C@H]2C[C@@H]3CN(CC4CCOCC4)C[C@@H]3C2)nn1 [Compound 40, (3aR,5s,6aS)-2-((tetrahydro-2H-pyran-4-yl)methyl)-N-(6-(2-(trifluoromethyl)pyridin-3-yl)pyridazin-3-yl)octahydrocyclopenta[c]pyrrol-5-amine] |
| 3% | 0.7 nM | – | [2H]C([2H])(C1CCOCC1)N1C[C@H]2C[C@H](Nc3nnc(-c4cnccc4C(F)(F)F)c4sccc34)C[C@H]2C1 [Compound 34, N-((3aR,5s,6aS)-2-((tetrahydro-2H-pyran-4-yl)methyl-d2)octahydrocyclopenta[c]pyrrol-5-yl)-7-(4-(trifluoromethyl)pyridin-3-yl)thieno[2,3-d]pyridazin-4-amine] |
| 4% | 0.52 nM | – | [2H]C([2H])(C1CCOCC1)N1C[C@H]2C[C@H](Nc3nnc(-c4cnccc4C(F)(F)F)c4ccsc34)C[C@H]2C1 [Compound 35, N-((3aR,5s,6aS)-2-((tetrahydro-2H-pyran-4-yl)methyl-d2)octahydrocyclopenta[c]pyrrol-5-yl)-4-(4-(trifluoromethyl)pyridin-3-yl)thieno[2,3-d]pyridazin-7-amine] |
| 5% | 0.48 nM | – | [2H]C([2H])(C1CCOCC1)N1C[C@H]2C[C@H](Nc3ccc(-c4cccnc4C(F)F)nn3)C[C@H]2C1 [Compound 38, (3aR,5s,6aS)-N-(6-(2-(difluoromethyl)pyridin-3-yl)pyridazin-3-yl)-2-((tetrahydro-2H-pyran-4-yl)methyl-d2)octahydrocyclopenta[c]pyrrol-5-amine] |
